Data as given in ChEMBL document CHEMBL1149753, “Two new alkaloids from Xestospongia sp., a New Caledonian sponge” (1992).
Converted amounts (≈) assume the structure as drawn. The source made the active and inactive calls. No cut-off for these calls is given here.

Legend:
KB = assay: Cytotoxicity against human KB cells; assay type: functional; details: for EC50: read-out: ED50 (the source's name)
L1210 = assay: Cytotoxicity against mouse L1210 cells; assay type: functional; details: for EC50: read-out: ED50 (the source's name)
P388 = assay: In vivo antitumor activity against mouse P388 cells; assay type: functional, organism-based

Structure (SMILES) | ED50 (KB) | ED50 (L1210) | EC50 (KB) [µg/mL] | EC50 (L1210) [µg/mL] | Activity (P388)
CN(C)CC1NCCc2c1[nH]c1ccccc21 (stereo unspecified) | inactive | inactive |  |  | 
O[C@@]12CCCCCC[C@H]3CCN4CCC[C@@H](CCCCCC[C@H]5CCN(CCC1)[C@@H]2O5)[C@H]4O3 [DEMETHYLXESTOSPONGIN B] |  |  | 2.5 (≈ 5.4 µM) | 0.8 (≈ 1.73 µM) | inactive
C[C@@H]1CN2CCC[C@H]3CCCCCC[C@H]4CCN5CCC[C@@](O)(CCCCCC[C@@H]1O[C@H]32)[C@H]5O4 [XESTOSPONGIN B] |  |  | 2.5 (≈ 5.24 µM) | 2 (≈ 4.2 µM) | inactive
O[C@@]12CCCCCC[C@H]3CCN4CCC[C@H](CCCCCC[C@H]5CCN(CCC1)[C@@H]2O5)[C@H]4O3 [XESTOSPONGIN D] |  |  | 2 (≈ 4.32 µM) | 0.2 (≈ 0.432 µM) | inactive
